Test results taken from patent US12371454B2, “Cyclic peptide compound having Kras inhibitory action” (priority 2019, dated 2025).
Starred links: 1 amine or outer side, 2 acyl side, 3 side chain; linkers in the order of their positions; H or OH if unused. Positions of bridges follow the written chain, without caps; N, C: chain ends. Non-standard residues stand in square brackets, D forms with d. Residues, ends and D or L forms follow the SMILES beside them. *: point of attachment. hPhe(3-Cl-4-CF3) = N[C@@H](CCc1ccc(C(F)(F)F)c(Cl)c1)C(=O)O; NMePhe(4-Me) = CN[C@@H](Cc1ccc(C)cc1)C(=O)O; NMedβ3hAla = C[C@H](CC(=O)[*:2])N(C)[*:1]; NMeNva(5,5-F2) = CN[C@@H](CCC(F)F)C(=O)O; NMeCha = CN[C@@H](CC1CCCCC1)C(=O)O; NMehLeu = CN[C@@H](CCC(C)C)C(=O)O; Hyp = O=C(O)[C@@H]1C[C@@H](O)CN1; NMeChg = CN[C@H](C(=O)O)C1CCCCC1; NMeD = CN[C@@H](CC(=O)O)C(=O)O; NMeL = CN[C@@H](CC(C)C)C(=O)O; NMeV = CN[C@H](C(=O)O)C(C)C; d(β3hA) = C[C@@H](N)CC(=O)O; NMeS = CN[C@@H](CO)C(=O)O; Morpholide = C1CN(*)CCO1; NMeA = CN[C@@H](C)C(=O)O; Piperidide = C1CCN(*)CC1; Pyrrolidide = C1CCN(*)C1; dNMeA = CN[C@H](C)C(=O)O; Ac5c = NC1(C(=O)O)CCCC1; Aze = O=C(O)[C@@H]1CCN1; Sar = CNCC(=O)O; Propyl = CCC*

Tested on: Human pancreatic cancer cell line AsPC-1
Test: Measurement of AsPC-1 cell growth inhibition (AsPC-1 CGI)
Type: cell-based
Conditions: 96 h
Summary of the method: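 AsPC-1 cells in 15% FBS RPMI-1640 were exposed to test compound for 96 hours at 37° C, with CellTiter-Glo as endpoint.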

Compound	IC50
CC[C@H](C)[C@@H]1NC(=O)[C@H](C)N(C)C(=O)C[C@@H](C)N(C)C(=O)[C@H](C(C)C)N(C)C(=O)C2(CCCC2)NC(=O)[C@@H]2CCCN2C(=O)[C@H](CCc2ccc(C(F)(F)F)c(Cl)c2)NC(=O)[C@@H](C)N(C)C(=O)[C@H](CC2CCCCC2)N(C)C(=O)[C@@H]2CCN2C(=O)[C@H](C)N(C)C1=O [Compound 1773] (cyclo([Ac5c][NMeV][NMedβ3hAla][NMeA]I[NMeA][Aze][NMeCha][dNMeA][hPhe(3-Cl-4-CF3)]P))	100 to 500 nM
CCO[C@@H]1C[C@H]2C(=O)NC3(CCCC3)C(=O)N(C)[C@@H](CC(C)C)C(=O)N(C)[C@H](C(=O)N3CCOCC3)CC(=O)N(C)[C@@H](CC(C)C)C(=O)N[C@@H]([C@@H](C)CC)C(=O)N(C)CC(=O)N(C)CC(=O)N(C)[C@@H](CC3CCCCC3)C(=O)N(C)CC(=O)N[C@@H](CCc3ccc(C(F)(F)F)c(Cl)c3)C(=O)N2C1 [Compound 1785] ([NMeL]I[Sar][Sar][NMeCha][Sar][hPhe(3-Cl-4-CF3)][Hyp](Et)[Ac5c][NMeL][NMeD]-Morpholide; lactam N-11)	50 to 100 nM
CC(C)C[C@H]1C(=O)N[C@@H](C(C)C)C(=O)N(C)[C@@H](C)C(=O)N2CC[C@H]2C(=O)N(C)[C@@H](CC2CCCCC2)C(=O)N(C)CC(=O)N[C@@H](CCc2ccc(C(F)(F)F)c(Cl)c2)C(=O)N2CCC[C@H]2C(=O)NC2(CCCC2)C(=O)N(C)[C@@H](C(C)C)C(=O)N(C)[C@H](C(=O)N2CCCCC2)CC(=O)N1C [Compound 1791] ([NMeL]V[NMeA][Aze][NMeCha][Sar][hPhe(3-Cl-4-CF3)]P[Ac5c][NMeV][NMeD]-Piperidide; lactam N-11)	100 to 500 nM
CC[C@H](C)[C@@H]1NC(=O)[C@H](CC(C)C)N(C)C(=O)C[C@@H](C(=O)N2CCCCC2)N(C)C(=O)[C@H](C2CCCCC2)N(C)C(=O)C2(CCCC2)NC(=O)[C@@H]2CCCN2C(=O)[C@H](CCc2ccc(C(F)(F)F)c(Cl)c2)NC(=O)CN(C)C(=O)[C@H](Cc2ccc(C)cc2)N(C)C(=O)[C@@H]2CCN2C(=O)[C@H](C)N(C)C1=O [Compound 1795] ([NMeL]I[NMeA][Aze][NMePhe(4-Me)][Sar][hPhe(3-Cl-4-CF3)]P[Ac5c][NMeChg][NMeD]-Piperidide; lactam N-11)	50 to 100 nM
CC[C@H](C)[C@@H]1NC(=O)[C@H](CCC(F)F)N(C)C(=O)C[C@@H](C(=O)N2CCCCC2)N(C)C(=O)[C@H](C(C)C)N(C)C(=O)C2(CCCC2)NC(=O)[C@@H]2CCCN2C(=O)[C@H](CCc2ccc(C(F)(F)F)c(Cl)c2)NC(=O)CN(C)C(=O)[C@H](CC2CCCCC2)N(C)C(=O)[C@@H]2CCN2C(=O)[C@H](C)N(C)C1=O [Compound 1797] ([NMeNva(5,5-F2)]I[NMeA][Aze][NMeCha][Sar][hPhe(3-Cl-4-CF3)]P[Ac5c][NMeV][NMeD]-Piperidide; lactam N-11)	100 to 500 nM
CC[C@H](C)[C@@H]1NC(=O)[C@H](CC(C)C)N(C)C(=O)C[C@@H](C)N(C)C(=O)[C@H](C(C)C)N(C)C(=O)C2(CCCC2)NC(=O)[C@@H]2CCCN2C(=O)[C@H](CCc2ccc(C(F)(F)F)c(Cl)c2)NC(=O)CN(C)C(=O)[C@H](CC2CCCCC2)N(C)C(=O)[C@@H]2CCN2C(=O)[C@H](C)N(C)C1=O [Compound 1800] (cyclo([Ac5c][NMeV][NMedβ3hAla][NMeL]I[NMeA][Aze][NMeCha][Sar][hPhe(3-Cl-4-CF3)]P))	50 to 100 nM
CC[C@H](C)[C@@H]1NC(=O)[C@H](CC(C)C)N(C)C(=O)C[C@@H](C)NC(=O)[C@H](C(C)C)N(C)C(=O)C2(CCCC2)NC(=O)[C@@H]2CCCN2C(=O)[C@H](CCc2ccc(C(F)(F)F)c(Cl)c2)NC(=O)CN(C)C(=O)[C@H](Cc2ccc(C)cc2)N(C)C(=O)[C@@H]2CCN2C(=O)[C@H](C)N(C)C1=O [Compound 1801] (cyclo([Ac5c][NMeV][d(β3hA)][NMeL]I[NMeA][Aze][NMePhe(4-Me)][Sar][hPhe(3-Cl-4-CF3)]P))	50 to 100 nM
CCCOC[C@H]1C(=O)N(C)CC(=O)N[C@@H](CCc2ccc(C(F)(F)F)c(Cl)c2)C(=O)N2CCC[C@H]2C(=O)NC2(CCCC2)C(=O)N(C)[C@@H](C2CCCCC2)C(=O)N(C)[C@H](C(=O)N2CCCCC2)CC(=O)N(C)[C@@H](CC(C)C)C(=O)N[C@@H]([C@@H](C)CC)C(=O)N(C)CC(=O)N(C)CC(=O)N1C [Compound 1805, (3S,9S,18S,21S,25S,28S,34S)-3-[2-[3-chloro-4-(trifluoromethyl)phenyl]ethyl]-28-cyclohexyl-21-isobutyl-7,10,13,16,22,26,29-heptamethyl-18-[(1S)-1-methylpropyl]-25-(piperidine-1-carbonyl)-9-(propoxymethyl)spiro[1,4,7,10,13,16,19,22,26,29,32-undecazabicyclo[32.3.0]heptatriacontane-31,1′-cyclopentane]-2,5,8,11,14,17,20,23,27,30,33-undecone] ([NMeL]I[Sar][Sar][NMeS](Propyl)[Sar][hPhe(3-Cl-4-CF3)]P[Ac5c][NMeChg][NMeD]-Piperidide; lactam N-11)	50 to 100 nM
CC[C@H](C)[C@@H]1NC(=O)[C@H](CC(C)C)N(C)C(=O)C[C@@H](C(=O)N2CCCCC2)N(C)C(=O)[C@H](C(C)C)N(C)C(=O)C2(CCCC2)NC(=O)[C@@H]2CCCN2C(=O)[C@H](CCc2ccc(C(F)(F)F)c(Cl)c2)NC(=O)CN(C)C(=O)[C@H](Cc2ccc(C)cc2)N(C)C(=O)[C@@H]2CCN2C(=O)[C@H](C)N(C)C1=O [Compound 1828] ([NMeL]I[NMeA][Aze][NMePhe(4-Me)][Sar][hPhe(3-Cl-4-CF3)]P[Ac5c][NMeV][NMeD]-Piperidide; lactam N-11)	100 to 500 nM
CC[C@H](C)[C@@H]1NC(=O)[C@H](CCC(C)C)N(C)C(=O)C[C@@H](C(=O)N2CCCCC2)N(C)C(=O)[C@H](C(C)C)N(C)C(=O)C2(CCCC2)NC(=O)[C@@H]2CCCN2C(=O)[C@H](CCc2ccc(C(F)(F)F)c(Cl)c2)NC(=O)CN(C)C(=O)[C@H](CC2CCCCC2)N(C)C(=O)[C@@H]2CCN2C(=O)[C@H](C)N(C)C1=O [Compound 1833] ([NMehLeu]I[NMeA][Aze][NMeCha][Sar][hPhe(3-Cl-4-CF3)]P[Ac5c][NMeV][NMeD]-Piperidide; lactam N-11)	100 to 500 nM
CCO[C@@H]1C[C@H]2C(=O)NC3(CCCC3)C(=O)N(C)[C@@H](CC(C)C)C(=O)N(C)[C@H](C)CC(=O)N(C)[C@@H](CC(C)C)C(=O)N[C@@H]([C@@H](C)CC)C(=O)N(C)CC(=O)N(C)CC(=O)N(C)[C@@H](CC3CCCCC3)C(=O)N(C)CC(=O)N[C@@H](CCc3ccc(C(F)(F)F)c(Cl)c3)C(=O)N2C1 [Compound 1851] (cyclo([Ac5c][NMeL][NMedβ3hAla][NMeL]I[Sar][Sar][NMeCha][Sar][hPhe(3-Cl-4-CF3)][Hyp](Et)))	20 to 50 nM
CC[C@H](C)[C@@H]1NC(=O)[C@H](CC(C)C)N(C)C(=O)C[C@@H](C(=O)N2CCCC2)N(C)C(=O)[C@H](C2CCCCC2)N(C)C(=O)C2(CCCC2)NC(=O)[C@@H]2CCCN2C(=O)[C@H](CCc2ccc(C(F)(F)F)c(Cl)c2)NC(=O)CN(C)C(=O)[C@H](Cc2ccc(C)cc2)N(C)C(=O)[C@@H]2CCN2C(=O)[C@H](C)N(C)C1=O [Compound 1852] ([NMeL]I[NMeA][Aze][NMePhe(4-Me)][Sar][hPhe(3-Cl-4-CF3)]P[Ac5c][NMeChg][NMeD]-Pyrrolidide; lactam N-11)	20 to 50 nM
